Among the test systems are M14 melanoma; UO-31 renal; HCT-116 colon; CCRF-CEM leukemia; SK-MEL-2 melanoma; HCC-2998 colon; HS 578T breast; SK-MEL-5 melanoma; IGROV1 ovarian; SN12C renal.
Assay in all cases: growth of human tumour cells (NCI), 48 h

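These data come from cells grown in 96-well plates and exposed to compound for 48 hours at five concentrations. The concentration for 50% growth inhibition is given as GI50. At the TGI there is no net growth.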

On to `O=C1CC(c2cccc(O)c2)C2(C(=O)NC(=S)NC2=O)C(c2cccc(O)c2)C1` (stereo not given), for which the GI50 in the assay with M14 melanoma, in the assay on UO-31 renal, in the assay with HCT-116 colon, in the assay on CCRF-CEM leukemia, in the assay on SK-MEL-2 melanoma and with HCC-2998 colon was over 100 µM throughout. Also, the GI50 in the assay on HS 578T breast, in the assay on SK-MEL-5 melanoma, in the assay with IGROV1 ovarian and with SN12C renal was over 100 µM throughout. Also, the TGI with M14 melanoma, in the assay on UO-31 renal, with HCT-116 colon, in the assay with CCRF-CEM leukemia, with SK-MEL-2 melanoma and in the assay with HCC-2998 colon was over 100 µM each time. The TGI with HS 578T breast, in the assay on SK-MEL-5 melanoma, in the assay on IGROV1 ovarian and in the assay on SN12C renal was over 100 µM in each case.

As for `Fc1ccc(-c2nn3c(-c4ccc(F)c(Cl)c4)nnc3s2)cc1`, the GI50 in the assay on M14 melanoma was over 50 µM; with UO-31 renal, 28.6 µM; in the assay with HCT-116 colon, 21.6 µM; in the assay with CCRF-CEM leukemia, 5.52 µM; in the assay on SK-MEL-2 melanoma, over 50 µM; in the assay on HCC-2998 colon, over 50 µM. The GI50 in the assay with HS 578T breast was over 50 µM; in the assay on SK-MEL-5 melanoma, 44.2 µM; with IGROV1 ovarian it was 33.1 µM; with SN12C renal, 32.3 µM. Besides, the TGI in the assay on M14 melanoma was over 50 µM; in the assay with UO-31 renal, over 50 µM; with HCT-116 colon, over 50 µM; in the assay on CCRF-CEM leukemia, 17.8 µM; with SK-MEL-2 melanoma, over 50 µM; with HCC-2998 colon it was over 50 µM. In addition, the TGI in the assay on HS 578T breast, in the assay on SK-MEL-5 melanoma, with IGROV1 ovarian and in the assay on SN12C renal was over 50 µM throughout.

For `O=C(Nc1ccccc1)c1nn(-c2cc(S(=O)(=O)O)c([N+](=O)[O-])cc2Cl)[n+](-c2cc(S(=O)(=O)[O-])c([N+](=O)[O-])cc2Cl)n1`, the TGI in the assay with M14 melanoma, in the assay on UO-31 renal, in the assay with HCT-116 colon, in the assay on CCRF-CEM leukemia, in the assay on SK-MEL-2 melanoma and in the assay on HCC-2998 colon was over 100 µM each time. Besides, the TGI in the assay with HS 578T breast, in the assay with SK-MEL-5 melanoma, in the assay with IGROV1 ovarian and with SN12C renal was over 100 µM each time.

`CC(=O)Nc1ccc(/C=C/C(=O)c2ccccc2)cc1`: the GI50 in the assay with M14 melanoma was 16 µM; with UO-31 renal, 5.3 µM; in the assay with HCT-116 colon it was 3.98 µM; in the assay on CCRF-CEM leukemia, 3.36 µM; in the assay with SK-MEL-2 melanoma, 19.7 µM; with HCC-2998 colon it was 15.5 µM. For the same compound, the GI50 was 5.97 µM in the assay on HS 578T breast, 16.2 µM in the assay with SK-MEL-5 melanoma, 9.44 µM with IGROV1 ovarian and 12.9 µM in the assay on SN12C renal. Also, the TGI in the assay with M14 melanoma stood at 33.3 µM; with UO-31 renal, 21.2 µM; with HCT-116 colon, 15.5 µM; in the assay on CCRF-CEM leukemia, 16.6 µM; in the assay on SK-MEL-2 melanoma, 35.5 µM; in the assay on HCC-2998 colon, 29.7 µM. Moreover, the TGI was 43.3 µM with HS 578T breast, 30.3 µM with SK-MEL-5 melanoma, 30.6 µM in the assay on IGROV1 ovarian and 29.5 µM in the assay on SN12C renal.

Take `C/C=C/C/C=C/CCC(=O)[C@H]1O[C@H]1C(N)=O`: the GI50 in the assay on M14 melanoma is 13.3 µM; with UO-31 renal it was 9.21 µM; with HCT-116 colon, 8.15 µM; in the assay with CCRF-CEM leukemia, 6.02 µM; in the assay with SK-MEL-2 melanoma, 15.9 µM; in the assay on HCC-2998 colon, 15 µM. Besides, the GI50 with HS 578T breast is 15.9 µM; in the assay with SK-MEL-5 melanoma, 12.5 µM; with IGROV1 ovarian, 13.5 µM; in the assay on SN12C renal, 11.5 µM. The TGI in the assay with M14 melanoma is 30 µM; in the assay on UO-31 renal it was 22.9 µM; in the assay with HCT-116 colon, 22 µM; in the assay with CCRF-CEM leukemia, 62.3 µM; in the assay on SK-MEL-2 melanoma it was 32.5 µM; in the assay with HCC-2998 colon it was 28.5 µM. Also, the TGI in the assay with HS 578T breast was over 100 µM; with SK-MEL-5 melanoma, 25.2 µM; in the assay on IGROV1 ovarian it was 33.3 µM; with SN12C renal, 25.3 µM.

As for `Nc1ccccc1-c1ccc([N+](=O)[O-])cc1`, the GI50 in the assay on M14 melanoma is 97.7 µM; in the assay with UO-31 renal, 5.07 µM; in the assay with HCT-116 colon, 3.4 µM; in the assay on CCRF-CEM leukemia it was 2.31 µM; with SK-MEL-2 melanoma it was over 100 µM; in the assay on HCC-2998 colon, 2.25 µM. The GI50 with HS 578T breast is 50.8 µM; in the assay on SK-MEL-5 melanoma it was 2.58 µM; in the assay with IGROV1 ovarian, 19 µM; with SN12C renal it was 11.2 µM. In addition, the TGI in the assay on M14 melanoma is over 100 µM; in the assay with UO-31 renal, over 100 µM; with HCT-116 colon, over 100 µM; in the assay on CCRF-CEM leukemia it was over 100 µM; in the assay with SK-MEL-2 melanoma it was over 100 µM; in the assay with HCC-2998 colon, 8.54 µM. Also, the TGI in the assay with HS 578T breast, with SK-MEL-5 melanoma, in the assay with IGROV1 ovarian and in the assay with SN12C renal was over 100 µM in each case.

Regarding `N=C(N)c1ccc(OCCOCCOc2ccc(C(=N)N)cc2)cc1`, the GI50 was over 100 µM in the assay on M14 melanoma; 71.5 µM in the assay on UO-31 renal; over 100 µM in the assay on HCT-116 colon; 1 µM in the assay with CCRF-CEM leukemia; 38.2 µM with SK-MEL-2 melanoma; over 100 µM with HCC-2998 colon. The GI50 is 67.3 µM in the assay with HS 578T breast, 33.1 µM in the assay with SK-MEL-5 melanoma, over 100 µM in the assay on IGROV1 ovarian and 58.8 µM in the assay on SN12C renal. The TGI in the assay with M14 melanoma, with UO-31 renal, in the assay on HCT-116 colon, in the assay with CCRF-CEM leukemia, with SK-MEL-2 melanoma and with HCC-2998 colon was over 100 µM in each case. For the same compound, the TGI in the assay on HS 578T breast, in the assay with SK-MEL-5 melanoma, in the assay on IGROV1 ovarian and in the assay on SN12C renal was over 100 µM in each case.

`CCOc1ccccc1NC(=O)c1cc2ccccc2cc1O`: the GI50 with M14 melanoma was 3.15 µM; in the assay on UO-31 renal it was 2.81 µM; in the assay with HCT-116 colon, 2.88 µM; with CCRF-CEM leukemia, 2.58 µM; in the assay on SK-MEL-2 melanoma it was 2.42 µM; in the assay on HCC-2998 colon it was 4 µM. Further, the GI50 in the assay on HS 578T breast was 2.85 µM; in the assay with SK-MEL-5 melanoma, 1.82 µM; with IGROV1 ovarian, 4.66 µM; with SN12C renal, 2.64 µM. The TGI in the assay with M14 melanoma amounted to 11 µM; in the assay with UO-31 renal, 12.5 µM; with HCT-116 colon, 8.02 µM; with CCRF-CEM leukemia it was 32.9 µM; in the assay with SK-MEL-2 melanoma, 5.47 µM; in the assay with HCC-2998 colon, 15.6 µM. Besides, the TGI with HS 578T breast came out at 7.14 µM; in the assay on SK-MEL-5 melanoma it was 3.7 µM; with IGROV1 ovarian it was 38.7 µM; in the assay with SN12C renal, 9.24 µM.

Source of the values: PubChem BioAssay (NCI).
